Assay results: patent US20240239801A1, “PYRIMIDO[5,4,D]PYRIMIDINE COMPOUNDS, COMPOSITIONS COMPRISING THEM AND USES THEREOF” (Université de Montréal, priority 2021, published 2024)
pIC50: −log10 of the molar value. Where two headings read alike, the source gives them in different places.

How the values were obtained:
[1] = test system: SW480 pERK; assay: Phospho-ERK inhibition, AlphaLISA SureFire Ultra p-ERK 1/2; format: cell-based, human; conditions: for SW480 pERK, value in parentheses, % inhibition: % Ymin of pERK IC50 curve; for SW480 (Ymin %): lowest value of the pERK IC50 curve
Summary of the method: (§1)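 IC50 derived by four-parameter fitting of % inhibition, with DMSO as 0% and 1 μM trametinib subtracted as background. Signal is AlphaLISA p-ERK1/2 (Thr202/Tyr204) in lysates of overnight-seeded cells (RPMI-1640, 5% FBS) treated 1 h with ten concentrations from 30 or 10 μM to 0.33 nM, 0.5% DMSO.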

[2] = test system: HCT116 pERK; assay: as above; format: cell-based, human; conditions: for HCT116 pERK, value in parentheses, % inhibition: % Ymin of pERK IC50 curve; for HCT116 (Ymin %): lowest value of the pERK IC50 curve
Summary of the method: as §1

[3] = target: T1, BRAF (Homo sapiens, UniProt P15056); assay: BRAF kinase activity assay (ADP-Glo); format: biochemical; conditions: Table 3
T1 construct: GST; purchased Millipore Sigma B4062-10UG
Summary of the method: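 GST-tagged BRAF (0.375 nM) was reacted with 75 nM kinase-dead MEK1 and 10 μM ATP for 2 h at 30 °C in HEPES pH 7.5 buffer with MgCl2, EDTA, Brij-35 and DTT. Compounds were tested at nine concentrations from 100 nM to 0.01 nM with 0.05% DMSO final. ADP-Glo luminescence gave % inhibition, and IC50 came from a four-parameter fit.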

[4] = Homo sapiens, SW480, Table D-2, read-out: SW480 pERK IC50
[5] = Homo sapiens, HCT-116, Table D-1
[6] = Table 3, 1 h treatment, read-out: SW480 PERK IC50
[7] = Table D-2, read-out: SW480 pERK IC50

T1 sequence (P15056 whole entry): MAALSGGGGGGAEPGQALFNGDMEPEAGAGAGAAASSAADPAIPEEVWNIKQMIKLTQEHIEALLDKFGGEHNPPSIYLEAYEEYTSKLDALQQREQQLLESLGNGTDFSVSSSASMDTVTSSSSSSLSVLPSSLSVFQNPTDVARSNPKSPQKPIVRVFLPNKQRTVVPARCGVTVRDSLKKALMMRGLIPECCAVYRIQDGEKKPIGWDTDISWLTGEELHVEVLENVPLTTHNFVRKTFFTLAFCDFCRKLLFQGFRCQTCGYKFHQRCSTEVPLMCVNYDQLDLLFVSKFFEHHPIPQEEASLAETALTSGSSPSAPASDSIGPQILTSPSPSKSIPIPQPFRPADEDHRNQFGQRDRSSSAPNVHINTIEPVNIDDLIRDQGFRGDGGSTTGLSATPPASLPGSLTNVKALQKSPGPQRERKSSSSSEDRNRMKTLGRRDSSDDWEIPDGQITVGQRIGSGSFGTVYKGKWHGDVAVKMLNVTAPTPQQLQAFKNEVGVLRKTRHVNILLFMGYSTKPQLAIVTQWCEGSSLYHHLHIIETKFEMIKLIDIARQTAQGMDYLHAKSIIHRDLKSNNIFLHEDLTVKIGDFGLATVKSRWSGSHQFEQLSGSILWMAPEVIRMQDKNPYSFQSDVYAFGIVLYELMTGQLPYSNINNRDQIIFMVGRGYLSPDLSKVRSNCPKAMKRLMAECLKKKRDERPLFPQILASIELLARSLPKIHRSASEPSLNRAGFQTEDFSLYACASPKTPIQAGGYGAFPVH

| SMILES | pIC50 [1, 4] | pIC50 [2, 5] | pIC50 [1, 6] | pIC50 [1, 7] | pIC50 ([2]; Table 3, 1 h treatment) | pIC50 ([2]; Table D-1) | pIC50 [3] | pIC50 ([1]; Homo sapiens, SW480, Table 3, 1 h treatment, read-out: SW480 PERK IC50) | pIC50 ([2]; Homo sapiens, HCT-116, Table 3, 1 h treatment) | SW480 pERK, value in parentheses, % inhibition ([1]; Table D-2) | HCT116 pERK, value in parentheses, % inhibition ([2]; Table D-1) | SW480 (Ymin %) ([1]; Table 3) | HCT116 (Ymin %) ([2]; Table 3) |
| --- | --- | --- | --- | --- | --- | --- | --- | --- | --- | --- | --- | --- | --- |
| Cc1ccc2c(Nc3cccc(Cl)c3F)nccc2c1NC(=O)c1csc2c(N)ncnc12 [Belvarafenib, reference compound] | 6.52 to 7.52 | 6.52 to 7.52 |  |  |  |  |  |  |  | (−100) % | (−46) % |  |  |
| O=S(=O)(Nc1ccc(F)c(Nc2ncnc3cnc(-n4cnc5c(N6CCC7(CCCO7)CC6)cccc54)nc23)c1F)c1cccc(Cl)c1Cl [Example 129] |  |  | > 6.30 | 6.52 to 7.52 | > 6.30 | 6.52 to 7.52 | < 8.00 |  |  | (3) % | (−8) % | 3% | −8% |
| Nc1cccc2c1ncn2-c1ncc2ncnc(Nc3c(F)ccc(NS(=O)(=O)c4cccc(Cl)c4Cl)c3F)c2n1 [Example 80] |  |  | > 6.30 |  | > 6.30 |  | > 9.00 |  |  |  |  | −2% | −7% |
| COc1ccc(S(=O)(=O)Nc2ccc(F)c(Nc3ncnc4cnc(-n5cnc6c(N)cccc65)nc34)c2F)c(C)c1Cl [Example 112] |  |  | > 6.30 | 6.52 to 7.52 | 6.00 to 6.30 | < 6.52 | < 8.00 |  |  | (−7) % | (−0.8) % | −7% | −0.8% |

Now from value to compound, other results behind:

| pIC50 [1, 4] | pIC50 [2, 5] | pIC50 [1, 6] | pIC50 [1, 7] | pIC50 ([2]; Table 3, 1 h treatment) | pIC50 ([2]; Table D-1) | pIC50 [3] | pIC50 ([1]; Homo sapiens, SW480, Table 3, 1 h treatment, read-out: SW480 PERK IC50) | pIC50 ([2]; Homo sapiens, HCT-116, Table 3, 1 h treatment) | SMILES | SW480 pERK, value in parentheses, % inhibition ([1]; Table D-2) | HCT116 pERK, value in parentheses, % inhibition ([2]; Table D-1) | SW480 (Ymin %) ([1]; Table 3) | HCT116 (Ymin %) ([2]; Table 3) |
| --- | --- | --- | --- | --- | --- | --- | --- | --- | --- | --- | --- | --- | --- |
|  |  | > 6.30 | 6.52 to 7.52 |  | 6.52 to 7.52 | > 9.00 |  |  | Cc1c(F)cccc1S(=O)(=O)Nc1ccc(F)c(Nc2ncnc3cnc(-n4cc(C(=O)N(C)Cc5ccncc5)c5ccccc54)nc23)c1F [Example 98] | (−1) % | (−6.0) % | −1% | (−6.0) % |
| 6.52 to 7.52 | < 6.52 |  |  |  |  | 8.00 to 9.00 | > 6.30 | > 6.30 | Cc1c(F)cccc1S(=O)(=O)Nc1ccc(F)c(Nc2ncnc3cnc(-n4cnc5c(-c6cccnc6)cccc54)nc23)c1F [Example 114] | (1) % | (−4.9) % | 2% |  |
